Values quoted from earlier work, collected in PMC5862601 (Oncotarget, 2018).
pEC50: −log10 of the molar value. Read-outs that look alike come from different tables or passages of the source.

Key:
HEK-A2B cells, A2B ≥ A2A = settings: cited from earlier work
[1] = system: HMEC-1 human microvascular endothelial cell line; set-up: method as in Feoktistov I, et al. Circ Res. 2002; 90:531-538. [21]; settings: ref Feoktistov I, et al. Circ Res. 2002, 90:531-538. [21]; cited from earlier work
[2] = system: Ovarian cancer cell line OVCAR-3; set-up: method as in Hajiahmadi S, et al. Res Pharm Sci. 2015; 10: 43-51. [24]; settings: ref Hajiahmadi S, et al. Res Pharm Sci. 2015, 10: 43-51. [24]; cited from earlier work
[3] = system: PC12 (rat) phaeochromocytoma cells; settings: cited from earlier work
[4] = system: Ovarian cancer cell line SKOV-3; set-up: method as in Hajiahmadi S, et al. Res Pharm Sci. 2015; 10: 43-51. [24]; settings: ref Hajiahmadi S, et al. Res Pharm Sci. 2015, 10: 43-51. [24]; cited from earlier work
[5] = system: Breast cancer cell line MDA-MB-231; set-up: method as in Panjehpour M, et al. Br J Pharmacol. 2005; 145: 211-218. [25]; settings: ref Panjehpour M, et al. Br J Pharmacol. 2005, 145: 211-218. [25]; cited from earlier work
[6] = system: isolated perfused mouse heart; settings: A2B knockout vs wildtype mice, ref [51]; cited from earlier work
[7] = system: HUVEC Human Umbilical Vein Endothelial Cells; set-up: method as in Feoktistov I, et al. Circ Res. 2002; 90: 531-538. [21]; settings: HUVEC (A2A > A2B); ref Feoktistov I, et al. Circ Res. 2002; 90: 531-538. [21]; cited from earlier work
[8] = system: prostate cancer cell lines (A2B > A2A); settings: three prostate cancer cell lines (A2B > A2A); ref [13]; cited from earlier work
Jurkat-T cells = settings: cited from earlier work; for pEC50: Jurkat-T, ref Van der Ploeg et al. Naunyn Schmiedeberg’s Arch Pharmacol. 1996, 353: 250-260. [22]
[9] = system: human ovarian cancer cell lines (A2B > A2A); settings: three human ovarian cancer cell lines (A2B > A2A); ref [12]; cited from earlier work
[10] = system: Ovarian cancer cell line Caov-4; set-up: method as in Hajiahmadi S, et al. Res Pharm Sci. 2015; 10: 43-51. [24]; settings: ref Hajiahmadi S, et al. Res Pharm Sci. 2015, 10: 43-51. [24]; cited from earlier work
[11] = system: Human prostatic carcinoma cells PC-3; set-up: method as in Wei Q, et al. Purinergic Signal. 2013; 9: 271-280. [23]; settings: ref Wei Q, et al. Purinergic Signal. 2013, 9: 271-280. [23]; cited from earlier work
A2B receptor (CHO-A2B) = settings: ref De Filippo E, et al. Purinergic Signal. 2016;12: 313-329. [11]; cited from earlier work
[12] = system: HEK293 (native) cells, A2B ≥ A2A; settings: cited from earlier work
[13] = system: T24 human bladder carcinoma cells; settings: cited from earlier work; for pEC50: T24 human bladder carcinoma
[14] = ref Gao Z, et al. Biochem Pharmacol. 2014, 90: 297-306. [17]
[15] = ref van der Ploeg et al. Naunyn Schmiedeberg’s Arch Pharmacol. 1996, 353: 250-260. [22], read-out: EC50

SMILES | pEC50 [1] | pEC50 [2] | pEC50 [3, 15] | pEC50 [4] | pEC50 [5] | increase in coronary flow [6] | pEC50 [7] | pEC50 (Jurkat-T cells) | pEC50 [10] | pEC50 [11] | other results
CCNC(=O)[C@H]1O[C@@H](n2cnc3c(N)ncnc32)[C@H](O)[C@@H]1O [NECA, 5′-N-ethylcarboxamidoadenosine] | 4.85 | 5.18 | 6.70 | 4.74 | 5.95 | increased coronary flow in A2B knockout (KO) mice to a significantly higher degree than in wildtype (WT) mice | 6.02 | 5.24 | 5.04 | 6.33 | pEC50 (HEK-A2B cells, A2B ≥ A2A; [14]): 7.68; pEC50 (HEK-A2B cells, A2B ≥ A2A; ref Hinz S, et al. J Pharmacol Exp Ther. 2014, 3: 427-436. [15]): 6.70; pEC50 (HEK-A2B cells, A2B ≥ A2A; ref Linden J, et al. Mol Pharmacol. 1999, 56: 705-713. [19]): 7.54; pEC50 ([3]; high-affinity component, ref Hide I, et al. Mol Pharmacol. 1992, 41: 352-359. [26], read-out: EC50, biphasic: KH): 7.18; pEC50 ([3]; low-affinity component, ref Hide I, et al. Mol Pharmacol. 1992, 41: 352-359. [26], read-out: EC50, biphasic: KL): 5.12; induction of cAMP accumulation [8]: concentration-dependently induced cAMP accumulation; induction of cAMP accumulation [9]: concentration-dependently induced cAMP accumulation
CCNC(=O)[C@H]1O[C@@H](n2cnc3c(N)nc(NCCc4ccc(CCC(=O)O)cc4)nc32)[C@H](O)[C@@H]1O [CGS-21680, (2-p-[2-carboxyethyl]phenethylamino)-5´-N-ethylcarboxamidoadenosine] | < 4.00 | < 4.00 | 7.05 | < 4.00 | < 5.00 | increased coronary flow in A2B knockout (KO) mice to a significantly higher degree than in wildtype (WT) mice | 6.33 | < 4.00 | < 4.00 | < 5.00 | pEC50 (A2B receptor (CHO-A2B)): 4.51; pEC50 ([3]; ref Hide I, et al. Mol Pharmacol. 1992, 41: 352-359. [26], read-out: EC50): 7.19; pEC50 ([12]; ref Cooper J, et al. Br J Pharmacol. 1997, 122: 546-550. [18]): < 4.52; pEC50 [12, 14]: < 5.00; induction of cAMP accumulation ([13]; T24 (A2B > A2A), ref [45]): inactive; pEC50 [13, 14]: < 5.00; pEC50 ([13]; ref Phelps PT, et al. Eur J Pharmacol. 2006, 536: 28-37. [20]): < 5.00; activity in cAMP assays (Jurkat-T cells; Jurkat-T cells (A2B ≥ A2A), ref [47]): nearly inactive
